In patent publication US8841277B2, “Methods for treating non-small cell lung cancer using 5-azacytidine” (Celgene Corporation, priority 2009, dated 2014):
Entries after “also recorded” stand apart in the source; their conditions may differ.

Legend:
[1] = system: LINE-1 elements in H1299 cells; test: LINE-1 Methylation Assay, H1299; format: cell-based; settings: for DNA hypomethylation (LINE-1 methylation): 48 hours or 72 hours
Experimental: Genomic DNA was purified from cells using the DNeasy Blood and Tissue Kit (Qiagen; Valencia, Calif.), according to the manufacturer's instructions. DNA yield was quantitated with a NanoDrop 8000 spectrophotometer (Thermo Fisher Scientific, Inc.). DNAs (1 μg/sample) were submitted to EpigenDx (Worcester, Mass.) for bisulfate conversion and pyrosequencing of LINE-1 elements. Briefly, 1 μg of DNA was bisulfite-treated using the Zymo DNA Methylation Kit (Zymo Research; Orange, Calif.) and eluted in 10 μL volume. DNA eluate (1 μL) was used for PCR with biotinylated primers to the LINE-1 locus, converting the PCR product to single-stranded DNA templates. PCR products (each 10 μL) were sequenced by Pyrosequencing PSQ96 HS System (Biotage AB), following the manufacturer's instructions (Biotage; Kungsgatan, Sweden). The methylation status of each locus was analyzed individually as a T/C SNP using QCpG software (Biotage). Percent LINE-1 methylation represents the average percent methylation of four CpG sites in duplicate samples.
At the highest drug concentration tested (3 μM), LINE-1 methylation was less affected, possibly due to reduced drug incorporation as a result of inhibited cell proliferation.

H460 cells [2] = test: Western analysis of DNA damage and apoptosis markers, H460; format: cell-based; settings: for Induction of Histone H2AX phosphorylation / Induction of PARP cleavage: 0.3-10 μM; for Induction of Histone H2AX phosphorylation: 24 h, 48 h, up to 72 hour
Experimental: (§1) These studies also examined apoptosis using an assay for PARP cleavage. Cells studied included H460, A549, and H1299 cells.
(§2) For western analyses of protein levels, cells were washed with PBS and lysed with RIPA buffer (Cell Signaling Technology, Inc.; Danvers, Mass.) containing 350 mM NaCl and 0.1% SDS. Cell lysates were sonicated with two 5-second bursts under low amplitude (20%) using the Digital Sonic Dismembrator (Thermo Fisher Scientific, Inc.; Waltham, Mass.). Proteins were separated on 4-12% Bis-Tris NuPAGE gels (Life Technologies Corporation) and transferred to nitrocellulose membranes. DNMT1, phos-Histone-H2AX(Ser139), total Histone-H2AX, cleaved-PARP, p21, p53, and alpha-tubulin were detected using the Li-Cor Odyssey imaging system (Li-Cor Biotechnology; Lincoln, Nebr.), following incubation with the appropriate primary and secondary antibodies. The phos-Histone-H2AX(Ser139), cleaved-PARP, and p21 antibodies were from Cell Signaling Technology, Inc. The p53 and total Histone-H2AX (C-20) antibodies were from Santa Cruz Biotechnology, Inc. (Santa Cruz, Calif.). The alpha-tubulin and DNMT1 antibodies were purchased from EMD Chemicals, Inc. (Gibbstown, N.J.) and Abcam, Inc. (Cambridge, Mass.), respectively. The goat anti-Rabbit IRDye 680, goat anti-Mouse IRDye 800CW, and donkey anti-Goat IRDye 800CW secondary antibodies were from Li-Cor Biotechnology.

H460 cells [3] = test: Apoptosis (AnnexinV-FITC/7-AAD), H460; format: cell-based; settings: 0.3-10 μM
Text: (§3) For cell cycle distribution, cells were stained with the NIM-DAPI reagent (Beckman Coulter, Inc.; Fullerton, Calif.). For measurement of early- and late-apoptotic cell populations, cells were stained with AnnexinV-FITC and 7-AAD reagents (Beckman Coulter, Inc.). Samples were processed according to manufacturer's instructions and analyzed on a Cell Lab Quanta MPL flow cytometer (Beckman Coulter, Inc.). […] Data were also collected for untreated cells as control.

NSCLC cell types = test: Apoptosis (AnnexinV-FITC/7-AAD), summary; format: cell-based; settings: summary of studies
Text: as §3

A549 cells [4] = test: Apoptosis (AnnexinV-FITC/7-AAD), A549; format: cell-based; settings: 0.3-10 μM
Text: as §3

H1975 cells = test: Cell viability (CyQuant assay), H1975; format: cell-based; settings: 72 hours; for HillSlope / LogIC50 / IC50: H1975 viability, best-fit value; for EC50 / IC50: Homo sapiens, NCI-H1975; for EC50: H1975, read-out: EC50 of effect on viability
Experimental: Certain NSCLC cell lines (H460, H1299, A549, and H1975) were purchased from American Type Culture Collection (ATCC; Manassas, Va.). The H23NSCLC cell line was obtained from the National Cancer Institute (NCI; Bethesda, Md.). Cell lines were cultured in their respective media, as recommended by ATCC and NCI. AZA was manufactured at Aptuit (Greenwich, Conn.) for Celgene (Summit, N.J.), while DAC was purchased from Sigma-Aldrich (St. Louis, Mo.). In all experiments, cells were seeded 24 hours before drug treatment and incubated at 37° C./5% CO2, For cell viability assays, H460, H1299, A549, H23, and H1975 cells were seeded in triplicate at 1×10^3, 1×10^3, 1×10^3, 4×10^3, and 4×10^3 cells per well, respectively, in 96-well plates, using 200 μL of medium per well. Fresh drug was added every 24 hours by replacing medium with drug-containing medium. For all other assays, cells were seeded at 0.6-1.2×10^5 cells per well, in 6-well plates, using 4 mL of medium per well, with fresh drug added directly to the medium every 24 hours.
Cell viability was assessed using the CyQuant assay (Life Technologies Corporation; Carlsbad, Calif.). Fluorescence was measured with a spectrophotometer (Molecular Devices; Sunnyvale, Calif.), and EC50 values were calculated in Prism® version 5.01 (GraphPad Software, Inc.; La Jolla, Calif.), using results from three independent experiments.
The six data sets represent calculations of EC50 values from raw data using Prism®. The standard deviation among the three independent experiments was determined at each drug concentration. For some of the cell lines, Prism® was not able to calculate the EC50 for DAC. For those curves that an EC50 was available, the SE (Std. Error) was acceptable (SE of the logEC50 should be less than 0.5), meaning that the standard errors were not too large. The 95% Confidence Intervals for the EC50 were considered as a measure of error.

A549 cells [5] = test: Western analysis of DNA damage and apoptosis markers, A549; format: cell-based; settings: for Induction of Histone H2AX phosphorylation (marker of DNA damage) / Induction of PARP cleavage (marker of apoptosis): 0.3-10 μM, 24 h to 72 h (3 days)
Experimental: as §1, §2

H460 cells [6] = test: Cell cycle distribution (NIM-DAPI), H460; format: cell-based
Text: These studies examined the cell cycle distribution of NSCLC cells treated with AZA or DAC using NIM-DAPI analysis.
as §3

H1299 cells = test: Western analysis of DNA damage and apoptosis markers, H1299; format: cell-based
Experimental: as §1, §2

NSCLC cells = test: Western analysis of DNA damage and cell death markers, summary; format: cell-based; settings: H460, A549, H1299 studies
Experimental: as §1, §2

[7] = administered at 15 mg/m^2; cited from earlier work
[8] = 0.3-10 μM, up to 3 days of treatment

Nc1ncn([C@@H]2O[C@H](CO)[C@@H](O)[C@H]2O)c(=O)n1 [AZA, 4-amino-1-β-D-ribofuranosyl-1,3,5-triazin-2(1H)-one]
Concentration of peak hypomethylation (LINE-1) ([1]; 48 or 72 hours): 0.3-1 μM | DNA hypomethylation (LINE-1 methylation) [1]: induced DNA hypomethylation; also recorded: caused a decrease in LINE-1 methylation | Concentrations affecting Histone H2AX phosphorylation and PARP cleavage (H460 cells [2]): above 1 μM | Induction of Histone H2AX phosphorylation (H460 cells [2]): induced | Induction of PARP cleavage (H460 cells [2]; 24 h and 48 h): induced | Early- and late-apoptotic cell populations (AnnexinV/7-AAD) (H460 cells [3]; 30-hour treatment): dramatic increase in early-apoptotic (AnnexinV^+7-AAD^−) and late-apoptotic (AnnexinV^+7-AAD^−) cells | Early- and late-apoptotic cell populations (AnnexinV/7-AAD) (H460 cells [3]; 48-hour treatment): dramatic increase in early-apoptotic (AnnexinV^+7-AAD^−) cells | Early- and late-apoptotic cell populations (AnnexinV/7-AAD) (NSCLC cell types): dramatic increase in early-apoptotic (AnnexinV+ 7-AAD−) and late-apoptotic (AnnexinV+ 7-AAD+) cells | Early- and late-apoptotic cell populations (AnnexinV/7-AAD) (A549 cells [4]; 48-hour treatment): dramatic increase in early-apoptotic (AnnexinV^+ 7-AAD^−) and late-apoptotic (AnnexinV^+ 7-AAD^+) cells | HillSlope (H1975 cells): −0.6352 | LogIC50 (H1975 cells): 0.8897 | EC50 (H1975 cells): 7.8 µM | IC50 (H1975 cells): 7.76 µM | Induction of Histone H2AX phosphorylation (marker of DNA damage) (A549 cells [5]): induced | Induction of PARP cleavage (marker of apoptosis) (A549 cells [5]): induced | Cell cycle distribution (NIM DAPI) (H460 cells [6]; 30-hour treatment, 0.3-10 μM): induced accumulation of cells in Sub-G1 | Cell cycle distribution (NIM DAPI) (H460 cells [6]; 60-hour treatment, 0.3-10 μM): decrease of cells in G0/G1 with a concomitant increase of cells in Sub-01 | Cell cycle distribution (NIM DAPI) (H460 cells [6]; summary of studies): induced accumulation of cells in Sub-G1 | Concentrations affecting Histone H2AX phosphorylation and PARP cleavage (H1299 cells): above 3 μM | Induction of Histone H2AX phosphorylation (H1299 cells; [8]): induced | Induction of PARP cleavage (H1299 cells; [8]): induced | Induction of DNA damage and cell death markers, concentration comparison (NSCLC cells): at lower concentrations than DAC

Nc1ncn([C@H]2C[C@H](O)[C@@H](CO)O2)c(=O)n1 [DAC, 5-aza-2′-deoxycytidine]
Concentration of peak hypomethylation (LINE-1) ([1]; 48 or 72 hours): 0.1 μM | Potency in decreasing LINE-1 methylation relative to AZA ([1]; 48 or 72 hours): 3- to 10 fold | DNA hypomethylation (LINE-1 methylation) [1]: induced DNA hypomethylation; also recorded: caused a decrease in LINE-1 methylation | Induction of Histone H2AX phosphorylation (H460 cells [2]): did not have any effect | Induction of PARP cleavage (H460 cells [2]; 24 h and 48 h): did not have any effect | p21 expression (H460 cells [2]; 24 h and 48 h, dose-dependent): induce | p53 expression (H460 cells [2]; 24 h and 48 h, dose-dependent): induce | Plasma levels [7]: 500 nM | Early- and late-apoptotic cell populations (AnnexinV/7-AAD) (H460 cells [3]; 30-hour treatment): very slight increase in these cell populations; also recorded: very slight increase in this cell population | Early- and late-apoptotic cell populations (AnnexinV/7-AAD) (H460 cells [3]; 48-hour treatment): some increase in this cell population | Early- and late-apoptotic cell populations (AnnexinV/7-AAD) (NSCLC cell types): very slight increase in these cell populations | Early- and late-apoptotic cell populations (AnnexinV/7-AAD) (A549 cells [4]; 48-hour treatment): very slight increase in these cell populations | Early- and late-apoptotic cell populations (AnnexinV/7-AAD) (A549 cells [4]; 72-hour treatment): very slight increase in these cell populations; also recorded: slight increase in early-apoptotic (AnnexinV^+ 7-AAD^−) cells only | HillSlope (H1975 cells): −0.2958 | LogIC50 (H1975 cells): 2.452 | EC50 (H1975 cells): > 25 µM | IC50 (H1975 cells): 283 µM | Induction of Histone H2AX phosphorylation (marker of DNA damage) (A549 cells [5]): did not have any effect and not | Induction of PARP cleavage (marker of apoptosis) (A549 cells [5]): did not have any effect and not | p21 expression (A549 cells [5]; 24 h and 48 h): induce | p53 expression (A549 cells [5]; 24 h and 48 h): induce | Induction of Histone H2AX phosphorylation (A549 cells [5]; 6 days of treatment): lack of induction | Induction of PARP cleavage (A549 cells [5]; 6 days of treatment): lack of induction | Cell cycle distribution (NIM DAPI) (H460 cells [6]; 30-hour treatment, 0.3-10 μM): induced accumulation of cells in Sub-G1 | Cell cycle distribution (NIM DAPI) (H460 cells [6]; 60-hour treatment, 0.3-10 μM): slight increase in Sub-G1 | Cell cycle distribution (NIM DAPI) (H460 cells [6]; summary of studies): induced accumulation of cells in Sub-G1 | Induction of Histone H2AX phosphorylation (H1299 cells; [8]): did not have any effect | Induction of PARP cleavage (H1299 cells; [8]): did not have any effect | Induction of Histone H2AX phosphorylation (H1299 cells; 6 days of treatment): induced strong | Induction of PARP cleavage (H1299 cells; 6 days of treatment): failed to induce significant
